Experimental findings from article doi:10.1101/2021.10.07.463234v2 (biorxiv, 2021) are described below.

Counter-ions that a name gives are not always drawn.

The first assay deals with SARS-CoV-2 Mac1 (Severe acute respiratory syndrome coronavirus 2, UniProt P0DTD1). In words: biochemical. The conditions noted are these: 100 µM; inhibitor.
As a reminder, the %inhibition is the drop in the measured response relative to a control, in per cent. High values mean a response far below the control, low ones a response near the control. On to `CC(C)N(CCC(C(N)=O)(c1ccccc1)c1ccccn1)C(C)C` (stereo not drawn) [Disopyramide Phosphate], for which the “%inhibition” value was found to be 0%. The same measure, in the same setting: the figure for `CC(C)N(CCC(C(N)=O)(c1ccccc1)c1ccccn1)C(C)C` (stereo not drawn) [Disopyramide] is 8.31%. Consider `CCN(CC)C(=S)SSC(=S)N(CC)CC` [Disulfiram], for which the “%inhibition” value is 0%. For `CCCC(CCC)C(=O)O` [Divalproex Sodium], the “%inhibition” value was 5.124%. As for `CC(=O)O[C@@]12CO[C@@H]1C[C@H](O)[C@@]1(C)C(=O)[C@H](O)C3=C(C)[C@@H](OC(=O)[C@H](O)[C@@H](NC(=O)OC(C)(C)C)c4ccccc4)C[C@@](O)([C@@H](OC(=O)c4ccccc4)[C@H]21)C3(C)C` [Docetaxel Trihydrate], the “%inhibition” value was found to be 6.628%. As to `COc1cc2c(cc1OC)C(=O)C(CC1CCN(Cc3ccccc3)CC1)C2` (stereo not drawn) [Donepezil HCl], the “%inhibition” value is recorded as 0%. For the compound `COc1cc2c(cc1OC)C(=O)C(CC1CCN(Cc3ccccc3)CC1)C2` (stereo not drawn) [Donepezil], the “%inhibition” value is recorded as 5.95%.

Consider `C[C@@H](O)[C@H]1C(=O)N2C(C(=O)O)=C(S[C@@H]3CN[C@H](CNS(N)(=O)=O)C3)[C@H](C)[C@H]12` [Doripenem Hydrate], for which the “%inhibition” value is recorded as 0%. For the compound `C[C@@H](O)[C@H]1C(=O)N2C(C(=O)O)=C(S[C@@H]3CN[C@H](CNS(N)(=O)=O)C3)[C@H](C)[C@H]12` [Doripenem], the “%inhibition” value is reported as 1.128%. As for `CN1CCN(c2ccc3nc(-c4c(N)c5c(F)cccc5[nH]c4=O)[nH]c3c2)CC1` [Dovitinib (TKI258) Lactate], the “%inhibition” value is 26.03%. As to `CN1CCN(c2ccc3nc(-c4c(N)c5c(F)cccc5[nH]c4=O)[nH]c3c2)CC1` [Dovitinib (TKI-258, CHIR-258)], the “%inhibition” value is 50.41%.

On to `CCN1CC(CCN2CCOCC2)C(c2ccccc2)(c2ccccc2)C1=O` (stereo not drawn) [Doxapram HCl], for which the “%inhibition” value is 9.802%. On the same count and under the same terms, the figure for `CCN1CC(CCN2CCOCC2)C(c2ccccc2)(c2ccccc2)C1=O` (stereo not drawn) [Doxapram] is 4.735%; for `C[C@H]1c2cccc(O)c2C(=O)C2=C(O)[C@]3(O)C(=O)C(C(N)=O)=C(O)[C@@H](N(C)C)[C@@H]3[C@@H](O)[C@@H]21` [Doxycycline Hyclate] it is 21.8%. For `C[C@H]1c2cccc(O)c2C(=O)C2=C(O)[C@]3(O)C(=O)C(C(N)=O)=C(O)[C@@H](N(C)C)[C@@H]3[C@@H](O)[C@@H]21` [Doxycycline], the “%inhibition” value turned out to be 4.525%. Still for that read-out and setting: the figure for `CNCC[C@H](Oc1cccc2ccccc12)c1cccs1` [Duloxetine HCl] is 0%; for `CNCC[C@H](Oc1cccc2ccccc12)c1cccs1` [Duloxetine] it is 8.877%; for `CN1CCc2nc(C(=O)N[C@@H]3C[C@@H](C(=O)N(C)C)CC[C@@H]3NC(=O)C(=O)Nc3ccc(Cl)cn3)sc2C1` [Edoxaban tosylate Monohydrate] it is 20.23%.

Regarding `CN1CCc2nc(C(=O)N[C@@H]3C[C@@H](C(=O)N(C)C)CC[C@@H]3NC(=O)C(=O)Nc3ccc(Cl)cn3)sc2C1` [Edoxaban], the “%inhibition” value came out at 4.891%. On the same count and under the same terms, the figure for `CC1=NN(c2ccc(C)c(C)c2)C(=O)/C1=N\Nc1cccc(-c2cccc(C(=O)O)c2)c1O` [Eltrombopag Olamine] is 18.42%; for `CC1=NN(c2ccc(C)c(C)c2)C(=O)/C1=N\Nc1cccc(-c2cccc(C(=O)O)c2)c1O` [Eltrombopag] it is 0%.

The assay is the same for the next values; noted with them: read-out: %inhibition.
What is called inhibition is the relative decrease from the control value, in per cent. On to `C[N+]1(C)CCC(=C(c2ccccc2)c2ccccc2)CC1` [Diphemanil Methylsulfate], for which the inhibition at 100 µM was found to be 0%. As to `OC(CCCN1CCCCC1)(c1ccccc1)c1ccccc1` [Diphenidol HCl], the inhibition at 100 µM came to 3%. Consider `CN1CCC(OC(c2ccccc2)c2ccccc2)CC1` [Diphenylpyraline HCl], for which the inhibition at 100 µM was 0%.

Take `OCCN(CCO)c1nc(N2CCCCC2)c2nc(N(CCO)CCO)nc(N3CCCCC3)c2n1` [Dipyridamole]: the inhibition at 100 µM amounted to 26.7%. Regarding `CC[C@H]1OC(=O)[C@H](C)[C@@H](O[C@H]2C[C@@](C)(OC)[C@@H](O)[C@H](C)O2)[C@H](C)[C@@H](O[C@@H]2O[C@H](C)C[C@H](N(C)C)[C@H]2O)[C@](C)(O)C[C@@H](C)[C@@H]2N[C@@H](COCCOC)O[C@H]([C@H]2C)[C@]1(C)O` [Dirithromycin], the inhibition at 100 µM amounted to 28.8%. On to `O=C(O)c1cc(=O)c2c(OCC(O)COc3cccc4oc(C(=O)O)cc(=O)c34)cccc2o1` [Disodium Cromoglycate], for which the inhibition at 100 µM came to 3.63%.

With `O=C1c2c(O)cccc2Cc2cccc(O)c21` [Dithranol], the inhibition at 100 µM came out at 18.7%. Regarding `CC(=O)O[C@@]12CO[C@@H]1C[C@H](O)[C@@]1(C)C(=O)[C@H](O)C3=C(C)[C@@H](OC(=O)[C@H](O)[C@@H](NC(=O)OC(C)(C)C)c4ccccc4)C[C@@](O)([C@@H](OC(=O)c4ccccc4)[C@H]21)C3(C)C` [Docetaxel], the inhibition at 100 µM stood at 11.6%. `CCCCC(CC)COC(=O)CC(C(=O)OCC(CC)CCCC)S(=O)(=O)O` (stereo not drawn) [Docusate Sodium]: the inhibition at 100 µM was 14.3%. With `CN(CCOc1ccc(NS(C)(=O)=O)cc1)CCc1ccc(NS(C)(=O)=O)cc1` [Dofetilide], the inhibition at 100 µM came out at 8.13%. For `O=C(O[C@@H]1C[C@@H]2C[C@H]3C[C@H](C1)N2CC3=O)c1c[nH]c2ccccc12` [Dolasetron], the inhibition at 100 µM came to 7.05%. Regarding `C[C@@H]1CCO[C@H]2Cn3cc(C(=O)NCc4ccc(F)cc4F)c(=O)c(O)c3C(=O)N12` [Dolutegravir (GSK1349572)], the inhibition at 100 µM was 9.9%. With `CCCCCCCCCCCC[N+](C)(C)CCOc1ccccc1` [Domiphen Bromide], the inhibition at 100 µM is 0.79%. With `NCCc1ccc(O)c(O)c1` [Dopamine HCl], the inhibition at 100 µM is 39.1%. For the compound `Cc1ccc(-n2nc(C(C)(C)C)cc2NC(=O)Nc2ccc(OCCN3CCOCC3)c3ccccc23)cc1` [Doramapimod (BIRB 796)], the inhibition at 100 µM came to 0%. Turning to `COc1cc2nc(N3CCN(C(=O)C4COc5ccccc5O4)CC3)nc(N)c2cc1OC` (stereo not drawn) [Doxazosin Mesylate], the inhibition at 100 µM is 14.6%. Same read-out and setting: the figure for `C=C1/C(=C\C=C2/CCC[C@]3(C)[C@@H]([C@H](C)/C=C/[C@H](C)C(C)C)CC[C@@H]23)C[C@@H](O)C[C@@H]1O` [Doxercalciferol] is 0%; for `C[C@H]1O[C@@H](n2cc(F)c(=O)[nH]c2=O)[C@H](O)[C@@H]1O` [Doxifluridine] it is 0%. With `Cn1c(=O)c2c(ncn2CC2OCCO2)n(C)c1=O` [Doxofylline], the inhibition at 100 µM was 1.49%. Turning to `COc1cccc2c1C(=O)c1c(O)c3c(c(O)c1C2=O)CC(O)(C(=O)CO)CC3OC1CC(N)C(O)C(C)O1` (stereo not drawn) [Doxorubicin (Adriamycin) HCl], the inhibition at 100 µM stood at 18.3%. Turning to `CN(C)CCOC(C)(c1ccccc1)c1ccccn1` (stereo not drawn) [Doxylamine Succinate], the inhibition at 100 µM turned out to be 4.4%.

`CCCCc1oc2ccc(NS(C)(=O)=O)cc2c1C(=O)c1ccc(OCCCN(CCCC)CCCC)cc1` [Dronedarone HCl]: the inhibition at 100 µM amounted to 0%. The same measure, in the same setting: under `O=C(CCCN1CC=C(n2c(=O)[nH]c3ccccc32)CC1)c1ccc(F)cc1` [Droperidol] stands 1.08%; under `OCC(O)CN1CCN(c2ccccc2)CC1` (stereo not drawn) [Dropropizine], 20.7%. Still for that read-out and setting: under `C[C@]12CCC(=O)C=C1[C@@H]1C[C@@H]1[C@H]1[C@@H]3[C@@H]4C[C@@H]4[C@@]4(CCC(=O)O4)[C@@]3(C)CC[C@@H]12` [Drospirenone] stands 0%; under `C[C@]12C=CC(=O)N[C@@H]1CC[C@@H]1[C@@H]2CC[C@]2(C)[C@@H](C(=O)Nc3cc(C(F)(F)F)ccc3C(F)(F)F)CC[C@@H]12` [Dutasteride], 12%. For `C[C@H](Nc1ncnc2nc[nH]c12)c1cc2cccc(Cl)c2c(=O)n1-c1ccccc1` [Duvelisib (IPI-145, INK1197)], the inhibition at 100 µM was 2.52%. Take `CCCCOc1ccc(C(=O)CCN2CCCCC2)cc1` [Dyclonine HCl]: the inhibition at 100 µM came out at 0%.

In the case of `Cn1c(=O)c2c(ncn2CC(O)CO)n(C)c1=O` (stereo not drawn) [Dyphylline], the inhibition at 100 µM worked out at 0.0817%. Take `CC(C)c1cc2c(cc1S(=O)(=O)O)[C@@]1(C)CCC[C@@](C)(C(=O)O)[C@@H]1CC2` [Ecabet sodium]: the inhibition at 100 µM came to 10.4%.

With `CC1=NN(c2ccccc2)C(=O)C1` [Edaravone], the inhibition at 100 µM turned out to be 5.75%.

On to `O=C1Nc2ccc(Cl)cc2[C@@](C#CC2CC2)(C(F)(F)F)O1` [Efavirenz], for which the inhibition at 100 µM came out at 0%. As for `C=C1CCN([C@H](C)[C@](O)(Cn2cncn2)c2ccc(F)cc2F)CC1` [Efinaconazole], the inhibition at 100 µM worked out at 2.14%. As to `NCCCC(N)(C(=O)O)C(F)F` (stereo not drawn) [Eflornithine hydrochloride hydrate], the inhibition at 100 µM was found to be 0%.

With `CC1=C(C(=O)OCCN(Cc2ccccc2)c2ccccc2)C(c2cccc([N+](=O)[O-])c2)C(P2(=O)OCC(C)(C)CO2)=C(C)N1` (stereo not drawn) [Efonidipine], the inhibition at 100 µM was found to be 14.5%. For `COc1cccc(-c2c(C)n(Cc3c(F)cccc3C(F)(F)F)c(=O)n(C[C@H](NCCCC(=O)O)c3ccccc3)c2=O)c1F` [Elagolix Sodium], the inhibition at 100 µM stood at 0%.

In the case of `COC(=O)N[C@H](C(=O)N1CCC[C@H]1c1nc(-c2ccc3c(c2)O[C@@H](c2ccccc2)n2c-3cc3cc(-c4c[nH]c([C@@H]5CCCN5C(=O)[C@@H](NC(=O)OC)C(C)C)n4)ccc32)c[nH]1)C(C)C` [Elbasvir], the inhibition at 100 µM worked out at 8.16%. The same measure, in the same setting: the figure for `CN1CCC[C@@H]1Cc1c[nH]c2ccc(CCS(=O)(=O)c3ccccc3)cc12` [Eletriptan HBr] is 0%; for `CCCCCCCC(=O)N[C@H](CN1CCCC1)[C@H](O)c1ccc2c(c1)OCCO2` [Eliglustat] it is 2.49%. Regarding `O=c1oc2c(O)c(O)cc3c(=O)oc4c(O)c(O)cc1c4c23` [Ellagic acid], the inhibition at 100 µM turned out to be 33.1%. Consider `COc1ccc(CN(C(=O)[C@@H](N)Cc2c(C)cc(C(N)=O)cc2C)[C@@H](C)c2ncc(-c3ccccc3)[nH]2)cc1C(=O)O` [Eluxadoline], for which the inhibition at 100 µM was 5.52%. The same measure, in the same setting: under `COc1cc2c(cc1Cc1cccc(Cl)c1F)c(=O)c(C(=O)O)cn2[C@H](CO)C(C)C` [Elvitegravir (GS-9137, JTK-303)] stands 0%.
